{
  "source": "patent US7786097B2",
  "about": "“Tricyclic compounds, compositions and methods” (Pfizer Inc., priority 2007, dated 2010)",
  "key": {"[1]": {"tested_on": "TNFα production in human whole blood", "assay": "Ex vivo LPS-stimulated human whole blood, TNFα", "assay_type": "cell-based", "settings": "LPS 100 ng/ml, 22 hours, mean of two donors", "method": "(§1) Venous blood from human donors was collected as 10 ml aliquots in tubes containing sodium heparin (BD Vacutainer from Becton Dickinson and Company, Franklin Lakes, N.Y.). Blood was added to sterile polystyrene round bottom 96-well tissue culture plates (Corning Costar) at 100 μl/well, omitting the outside wells. Media (RPMI Medium 1640 with L-glutamine, Invitrogen Corporation, Carlsbad, Calif.) was added to the blood in 90 μl aliquots for a total volume of 190 μl. Outside wells were filled with 200 μl of media. Blood was placed in a humidified 37° C. incubator with 5% CO2 while compounds were prepared (nearly 60 minutes).\n(§2) Compounds were prepared from 10 mM stock solutions in dimethylsulfoxide (DMSO, Sigma-Aldrich). […] Final DMSO and ethanol concentrations in the assay were 0.1% and 1.5%. The samples were gently triturated twice to mix and replaced in the incubator. LPS stock (E. coli serotype 0111:B4, Sigma-Aldrich), stored in aliquots of 100 μg/ml in RPMI at −20° C., was diluted 1/50 in RPMI to make a working stock solution. After 60 minutes of incubation, 10 μl of the prepared LPS working stock was added to the blood to a final concentration of 100 ng/ml, omitting wells to be used as negative control. The samples were again gently triturated and the plates incubated overnight for 22 hours. Following incubation, the blood was centrifuged at 1500×g for 5 minutes and the plasma removed to either freeze at −20° C. or assay for cytokine release.\n(§3) IL-1β, IFNγ, IL-6, and TNFα protein levels were measured using Meso Scale assay kits (Meso Scale Discovery, Gaithersburg, Md.). Reagents were allowed to come to room temperature. Meso Scale plates were blocked with 30 μl of human plasma/serum assay diluent with gentle shaking for 60 minutes at room temperature. Plates were washed 3× with wash buffer (PBS, Invitrogen Corporation, with 0.05% Tween-20, Sigma-Aldrich). Calibrators for standard curves were prepared in human plasma/serum assay diluent as a […] serial dilution to achieve final concentrations ranging from 50000 pg/ml to 3.2 pg/ml. Samples and calibrators were added at 20 μl/well, then incubated at room temperature with gentle shaking for 90 minutes. Plates were again washed 3 times with wash buffer. Detection antibody was diluted in human plasma/serum antibody diluent to 1 μg/ml and added to the plate at 20 μl/well. Plates were incubated as before for 60 minutes and washed again. Read Buffer T<4×) was diluted 1:1 with mqH2O to 2 times concentration and 150 μl added to each well. Plates were analyzed on the SECTOR Imager 6000 (Meso Scale Discovery) to generate raw signal values.\n(§4) IL-1β, IFN-γ, IL-6, and TNFα sample values were verified to be within the calibrator standard curves. Individual values were compared to positive and negative controls (vehicle treated blood with LPS and vehicle treated blood without LPS, respectively) to generate % inhibition. Triplicate values were averaged for each donor. The values for two donors were averaged (only one donor was used for IL-1β) and graphed using 4-parameter fit curves in the GraFit 5.0.11 application."}, "[2]": {"tested_on": "IL-1β production in human whole blood", "assay": "Ex vivo LPS-stimulated human whole blood, IL-1β", "assay_type": "cell-based", "settings": "LPS 100 ng/ml, 22 hours, one donor", "method": "as §1, §2, §3, §4"}, "[3]": {"tested_on": "IFNγ production in human whole blood", "assay": "Ex vivo LPS-stimulated human whole blood, IFNγ", "assay_type": "cell-based", "settings": "LPS 100 ng/ml, 22 hours, mean of two donors", "method": "as §1, §2, §3, §4"}, "[4]": {"tested_on": "Mouse Collagen-Induced Arthritis (mCIA)", "assay": "Therapeutic mouse collagen-induced arthritis (mCIA) model", "assay_type": "in vivo, Male DBA/J mice", "settings": "mice, dosing day 34 through day 49", "source_text": "Mouse Collagen-induced arthritis is a commonly used chronic, preclinical model of rheumatoid arthritis in which joint swelling and bone destruction occur following immunization with type II collagen. Reduction of disease incidence and severity has been shown previously to be predictive of disease-modification and signs and symptoms mitigation, respectively, in a clinical setting.\nIn the therapeutic mCIA model, induction of disease incidence and severity was synchronized via LPS stimulation. Male DBA/J mice were immunized with 100 ug of bovine type II collagen (bCII) on day 0. All mice received an intraperitoneal injection of 20 μg of LPS on day 28 and disease was allowed to develop through day 34. At day 34, all mice had disease (incidence=100%) with an average severity score of seven. Dosing of compounds was initiated in the therapeutic mode on day 34 and continued through day 49. Different treatments were compared by measuring the decrease in incidence (i.e., resolution of disease) and the decrease in severity of paw swelling over time."}, "[5]": {"tested_on": "IL-6 production in human whole blood", "assay": "Ex vivo LPS-stimulated human whole blood, IL-6", "assay_type": "cell-based", "settings": "LPS 100 ng/ml, 22 hours, mean of two donors", "method": "as §1, §2, §3, §4"}},
  "data": [
    {"smiles": "C[C@]12C=CC(=O)C=C1CC[C@@H]1[C@@H]2[C@@H](O)C[C@@]2(C)[C@H]1CC[C@]2(O)C(=O)CO", "note": "[Prednisolone]", "values": [
      {"measurement": "inhibition at 0.00137174 µM", "setting": "[1]; 1.371742 nM", "result": 6.61, "unit": "%"},
      {"measurement": "inhibition at 0.00411523 µM", "setting": "[1]; 4.115226 nM", "result": 5.31, "unit": "%"},
      {"measurement": "inhibition at 0.0123457 µM", "setting": "[1]; 12.34568 nM", "result": 12.9, "unit": "%"},
      {"measurement": "inhibition at 0.037037 µM", "setting": "[1]; 37.03704 nM", "result": 27.7, "unit": "%"},
      {"measurement": "inhibition at 0.111111 µM", "setting": "[1]; 111.1111 nM", "result": 62.4, "unit": "%"},
      {"measurement": "inhibition at 0.333333 µM", "setting": "[1]; 333.3333 nM", "result": 89, "unit": "%"},
      {"measurement": "inhibition at 1 µM", "setting": "[1]; 1000 nM", "result": 93.9, "unit": "%"},
      {"measurement": "inhibition at 0.000457247 µM", "setting": "[2]; 0.457247 nM", "result": 9.65, "unit": "%"},
      {"measurement": "inhibition at 0.00137174 µM", "setting": "[2]; 1.371742 nM", "result": 15.1, "unit": "%"},
      {"measurement": "inhibition at 0.00411523 µM", "setting": "[2]; 4.115226 nM", "result": 21, "unit": "%"},
      {"measurement": "inhibition at 0.0123457 µM", "setting": "[2]; 12.34568 nM", "result": 33.6, "unit": "%"},
      {"measurement": "inhibition at 0.037037 µM", "setting": "[2]; 37.03704 nM", "result": 37.7, "unit": "%"},
      {"measurement": "inhibition at 0.111111 µM", "setting": "[2]; 111.1111 nM", "result": 73.2, "unit": "%"},
      {"measurement": "inhibition at 0.333333 µM", "setting": "[2]; 333.3333 nM", "result": 92.9, "unit": "%"},
      {"measurement": "inhibition at 1 µM", "setting": "[2]; 1000 nM", "result": 94.9, "unit": "%"},
      {"measurement": "inhibition at 0.000457247 µM", "setting": "[3]; 0.457247 nM", "result": 4.93, "unit": "%"},
      {"measurement": "inhibition at 0.00137174 µM", "setting": "[3]; 1.371742 nM", "result": 10.9, "unit": "%"},
      {"measurement": "inhibition at 0.00411523 µM", "setting": "[3]; 4.115226 nM", "result": 5.16, "unit": "%"},
      {"measurement": "inhibition at 0.0123457 µM", "setting": "[3]; 12.34568 nM", "result": 25.7, "unit": "%"},
      {"measurement": "inhibition at 0.037037 µM", "setting": "[3]; 37.03704 nM", "result": 63.5, "unit": "%"},
      {"measurement": "inhibition at 0.111111 µM", "setting": "[3]; 111.1111 nM", "result": 95, "unit": "%"},
      {"measurement": "inhibition at 0.333333 µM", "setting": "[3]; 333.3333 nM", "result": 99.8, "unit": "%"},
      {"measurement": "inhibition at 1 µM", "setting": "[3]; 1000 nM", "result": 100, "unit": "%"},
      {"measurement": "Therapeutic mCIA (ED80 dose)", "setting": "[4]", "result": 5.5, "unit": "mg/kg"},
      {"measurement": "inhibition at 0.000457247 µM", "setting": "[5]; 0.457247 nM", "result": 2.22, "unit": "%"},
      {"measurement": "inhibition at 0.00137174 µM", "setting": "[5]; 1.371742 nM", "result": -0.941, "unit": "%"},
      {"measurement": "inhibition at 0.00411523 µM", "setting": "[5]; 4.115226 nM", "result": -0.232, "unit": "%"},
      {"measurement": "inhibition at 0.0123457 µM", "setting": "[5]; 12.34568 nM", "result": -0.417, "unit": "%"},
      {"measurement": "inhibition at 0.037037 µM", "setting": "[5]; 37.03704 nM", "result": 5.03, "unit": "%"},
      {"measurement": "inhibition at 0.111111 µM", "setting": "[5]; 111.1111 nM", "result": 11.7, "unit": "%"},
      {"measurement": "inhibition at 0.333333 µM", "setting": "[5]; 333.3333 nM", "result": 40.3, "unit": "%"},
      {"measurement": "inhibition at 1 µM", "setting": "[5]; 1000 nM", "result": 62.1, "unit": "%"}
    ]}
  ]
}
